Measurements as given in article PMC4160910 (European journal of medicinal chemistry, 2014).

Key:
[1] = tested on: all stages of S. mansoni; conditions: ref [14],[20]; cited from earlier work
[2] = tested on: cultured adult S. japonicum worms; conditions: ref [14],[20]; cited from earlier work
[3] = tested on: cultured adult S. haematobium worms; conditions: ref [14],[20]; cited from earlier work
[4] = tested on: adult Schistosoma mansoni worms; experiment: Worm contraction of cultured adult worms; type: cell-based; conditions: after overnight culture with compound, 10 and 50 µM
[5] = tested on: adult Schistosoma mansoni worms; experiment: Worm killing of cultured adult worms, monitored over 144 hrs; type: cell-based; conditions: at the concentrations tested (10 and 50 µM)

| Structure (SMILES) | Activity against all stages of S. mansoni [1] | Activity against cultured adult S. japonicum worms [2] | Activity against cultured adult S. haematobium worms [3] | Time for worms to return to normal length [4] | Time at which worms begin to die after compound is removed from culture media [5] |
| --- | --- | --- | --- | --- | --- |
| N#Cc1c(-c2ccccc2)no[n+]1[O-] [Compound 2, 4-phenylfuroxan-3-carbonitrile] | active | active | active |  |  |
| O=C(C1CCCCC1)N1CC(=O)N2CCc3ccccc3C2C1 (centres unmarked) [PZQ, 2-(cyclohexylcarbonyl)-1,2,3,6,7,11b-hexahydro-4H-pyrazino[2,1-a]isoquinolin-4-one] |  |  |  | > 2 days | 4 to 5 days |
